Like-named read-outs stand apart in the source and are kept apart here.
Assays:
[1] = tested on: captopril-treated, saline-drinking SHRSP; assay: Protocol 2: Angiotensin II-induced renal damage in captopril-treated saline-drinking SHRSP; assay type: in vivo, male SHRSP/A3N
Method: Animals. Studies were conducted in accordance with institutional guidelines using male SHRSP/A3N (generations F-75 to F-78), n = 37, from our local colony. These animals were bred from NIH stock, derived from the SHRSP/A3N substrain described originally by Okamoto and coworkers (Okamoto K et al. Circ. Res. 34 and 35 (suppl I):I-143-I-153.). All animals were housed in a room maintained on a 12:12-h light:dark-cycle and an ambient temperature of 22 ± 1°C in the Animal Care Facility at New York Medical College. Rats were weaned at 4 weeks of age and allowed free access to Purina Lab Chow 5001 (Ralston Purina, St. Louis, MO) and tap water until the initiation of experimental protocols.
SHRSP were placed on Stroke-Prone Rodent Diet (#39-288, Zeigler Bros Inc., Gardners, PA) and 1% NaCl drinking solution ad libitum starting at 8.3 weeks of age. […] Animals were handled and weighed daily. Urine samples were collected for the assessment of proteinuria. Systolic blood pressure and heart rate were measured each week. After 2 weeks of treatment, animals were decapitated, trunk blood was collected into chilled EDTA tubes, and the kidneys were removed, blotted dry, and immediately weighed. Coronal sections of kidney were fixed and later processed for light microscopic evaluation.
Assays and Analyses. Systolic blood pressure and heart rate of awake animals were measured by tail-cuff plethysmography using a Natsume KN-210 manometer and tachometer (Peninsula Laboratories Inc., Belmont, CA). Rats were warmed at 37°C for 10 min and allowed to rest quietly in a Lucite chamber before measurement of blood pressure. Measurements of urine volume were made gravimetrically. Urinary protein concentration was determined by the sulfosalicylic acid turbidity method. Plasma aldosterone was measured by radioimmunoassay using ^125I-aldosterone as a tracer (Coat-a Count Aldosterone, Diagnostic Products Co., Los Angeles, CA).
Histology. Kidneys were preserved in 10% phosphate-buffered formalin. Coronal sections (2-3 µm) were stained with hematoxylin and eosin and examined by light microscopy in a blinded fashion as previously described (Stier CT et al. J Pharmacol Exp Ther (1992) 260:1410-1415). Glomerular damage was categorized as ischemic or thrombotic. Ischemic lesions were defined as retraction of glomerular capillary tufts with or without appreciable mesangiolysis. Glomerular thrombotic lesions were defined as any one of a combination of the following: segmental to global fibrinoid necrosis, focal thrombosis of glomerular capillaries, swelling and proliferation of intracapillary (endothelial and mesangial) and/or extracapillary cells (crescents), and expansion of reticulated mesangial matrix with or without significant hypercellularity. […] Vascular thrombotic lesions were defined as any one or a combination of the following: mural fibrinoid necrosis, extravasation and fragmentation of red blood cells, and luminal and/or mural thrombosis. Proliferative arteriopathy was characterized by proliferation of markedly swollen myointimal cells with swollen round to ovoid vesicular nuclei surrounded by mucinous extracellular matrix ("onion skinning") often resulting in nodular thickening. Vascular damage was expressed as the number of arteries and arterioles with lesions per 100 glomeruli. The presence of casts and tubular (ischemic) retraction and simplification was assessed semiquantitatively.
Statistical Analysis. Significant effects with respect to treatment and time were determined by two-way analysis of variance. Data with only one grouping variable were analyzed statistically by Student's unpaired t tests. When more than two groups were compared, one-way analysis of variance was performed followed by the post-hoc Newman-Keul's multiple comparison test. Data were analyzed using version 2.01 of the GraphPad Prism statistical software package (GraphPad Software Inc., San Diego, CA). P < .05 was considered statistically significant. Data are reported as mean ± SEM.

[2] = Physical stability of solid state forms; assay type: physicochemical; conditions: at temperatures below the enantiotropic transition temperature
[3] = tested on: patients with severe heart failure; conditions: added to ACE inhibitor plus loop diuretic; cited from earlier work
[4] = tested on: Volume Expanded Hypertensive Rats; conditions: averaged for 24 hours after three weeks
[5] = tested on: patients with hypertension; assay: Clinical efficacy in hypertension: randomized double-blind study, cuff and ambulatory blood pressure; assay type: in vivo; conditions: 100 mg/day (50 BID)
Method: A multicenter, randomized, double-blind, parallel group study was conducted in patients with hypertension. […] The study consisted of a two-week pretreatment period for completion of screening procedures and discontinuation of any current antihypertensive medication(s). The screening period was followed by a four-week single-blind placebo lead-in treatment period.
The primary efficacy measure was the change from baseline in cuff diastolic blood pressure measured at trough as compared to placebo. Secondary efficacy measures included changes in cuff assessed trough systolic blood pressure and changes in average 24-hour diastolic and systolic blood pressure assessed by ambulatory blood pressure monitoring. Safety was assessed by conducting routine clinical lab tests, physical exams, ECGs, and monitoring for adverse events.

[6] = tested on: patients with severe heart failure; conditions: NYHA Functional Class IV, enalapril plus diuretics compared to placebo plus diuretics; cited from earlier work

C[C@H](CS)C(=O)N1CCC[C@H]1C(=O)O [Captopril, captopril, reference compound]
Glomerular damage, Ischemic ([1]; Captopril 50 mg/kg/d + vehicle, or CAP, Angiotensin II 25 ng/min + Eplerenone 100 mg/kg/d, 2 weeks): 0 ± 0 lesions/100 glomeruli
Glomerular damage, Thrombotic ([1]; as Table A-8B, 2 weeks): 0±0 lesions/100 glomeruli
Glomerular damage, Total ([1]; as Table A-8B, 2 weeks): 0±0 lesions/100 glomeruli
Renal arteriopathy, Proliferative ([1]; as Table A-8B, 2 weeks): 0±0 lesions/100 glomeruli
Renal arteriopathy, Thrombotic ([1]; as Table A-8B, 2 weeks): 0±0 lesions/100 glomeruli
Renal arteriopathy, Total ([1]; as Table A-8B, 2 weeks): 0±0 lesions/100 glomeruli
tubules with ischemic retraction and simplification ([1]; captopril plus vehicle, or captopril plus angiotensin II plus eplerenone): absent

COC(=O)[C@@H]1CC2=CC(=O)CC[C@]2(C)[C@@]23O[C@@H]2C[C@@]2(C)[C@@H](CC[C@@]24CCC(=O)O4)[C@H]13 [Form L]
physical stability relative to Form H [2]: greater physical stability

CC(=O)S[C@@H]1CC2=CC(=O)CC[C@]2(C)[C@H]2CC[C@@]3(C)[C@@H](CC[C@@]34CCC(=O)O4)[C@H]12 [Spironolactone, spironolactone, reference compound]
morbidity and mortality [3]: reduced morbidity and mortality
SAP ([4]; 100 mg/kg s.c.): 171 ± 5 mmHg
SAP ([4]; 200 mg/kg s.c.): 170 ± 9 mmHg
ABPM DBP, adjusted mean change from baseline to final visit [5]: -8.7 mm Hg
ABPM SBP, adjusted mean change from baseline to final visit [5]: -15.8 mm Hg
Cuff DBP, adjusted mean change from baseline to final visit [5]: -9.5 mm Hg
Cuff SBP, adjusted mean change from baseline to final visit [5]: -16.7 mm Hg

CCOC(=O)[C@H](CCc1ccccc1)N[C@@H](C)C(=O)N1CCC[C@H]1C(=O)O [enalapril]
reduction of mortality at one year [6]: 31%
